Where two headings read alike, the source gives them in different places.
Experiments:
Assay type in all cases: cell-based, human
NCI/ADR-RES = test: SRB anticancer assay, ovarian; set-up: Log10GI50: unit not given here; conditions: for Log10GI50: present compounds
OVCAR-4 = test: SRB anticancer assay, ovarian; conditions: Homo sapiens, OVCAR-4, 48 h
OVCAR-3 = test: SRB anticancer assay, ovarian; set-up: Log10GI50: unit not given here
NCI-H460 = test: SRB anticancer assay, non-small lung; conditions: Homo sapiens, NCI-H460, 48 h
DU-145 = test: SRB anticancer assay, prostate; set-up: Log10GI50: unit not given here
K-562 = test: SRB anticancer assay, leukemia; set-up: Log10GI50: unit not given here
KM12 = test: SRB anticancer assay, colon; conditions: Homo sapiens, KM12, 48 h
LOX IMVI = test: SRB anticancer assay, melanoma; set-up: Log10GI50: unit not given here
U251 = test: SRB anticancer assay, CNS; set-up: Log10GI50: unit not given here
SR = test: SRB anticancer assay, leukemia; conditions: Homo sapiens, 48 h
SK-MEL-5 = test: SRB anticancer assay, melanoma; conditions: Homo sapiens, SK-MEL-5, 48 h
SF-539 = test: SRB anticancer assay, CNS; set-up: Log10GI50: unit not given here
NCI-H522 = test: SRB anticancer assay, non-small lung; set-up: Log10GI50: unit not given here
TK-10 = test: SRB anticancer assay, renal; conditions: Homo sapiens, TK-10, 48 h
SF-295 = test: SRB anticancer assay, CNS; set-up: Log10GI50: unit not given here
[1] = tested on: Leukemia cancer cell lines; test: SRB anticancer assay, panel result
Procedure: (§1) The compounds were evaluated for anticancer activity against sixty human cancer cells derived from nine cancer types (leukemia cell line, non-small-cell lung cell line, colon cell line, CNS cell line, melanoma cell line, ovarian cell line, prostate cell line, renal cancer cell line and breast cancer cell line) as shown in Table 1. For each compound, dose response curves for each cell line were measured at a minimum of five concentrations at 10 fold dilutions. A protocol of 48 h continuous drug exposure was used and a sulforhodamine B (SRB) protein assay was used to estimate cell viability or growth.

[2] = tested on: Ovarian cancer cell lines; test: SRB anticancer assay, panel result
Procedure: as §1

Colon cancer cell lines = test: SRB anticancer assay, panel result
Procedure: as §1

[3] = tested on: Prostate cancer cell lines; test: SRB anticancer assay, panel result
Procedure: as §1

[4] = tested on: Non-small cell lung cancer cell lines; test: SRB anticancer assay, panel result
Procedure: as §1

Renal cancer cell lines = test: SRB anticancer assay, panel result
Procedure: as §1

Breast cancer cell lines = test: SRB anticancer assay, panel result
Procedure: as §1

[5] = tested on: Melanoma cancer cell lines; test: SRB anticancer assay, panel result
Procedure: as §1

CNS cancer cell lines = test: SRB anticancer assay, panel result
Procedure: as §1

786-0 = test: SRB anticancer assay, renal

COc1cc(OC)cc(-c2cncn2-c2ccc(-c3nc4cc(OC)c(OC)c(OC)c4s3)cc2)c1 [Compound 7d, 2-(4-(5-(3,5-Dimethoxyphenyl)-1H-imidazol-1-yl)phenyl)-5,6,7-trimethoxybenzo[d]thiazole]
GI50 (NCI/ADR-RES; Homo sapiens, NCI/ADR-RES, 48 h): 11 µM | Log10GI50 (NCI/ADR-RES; NCI/ADR-RES (row head NCI/ADR-)): −4.96 | Log10GI50 (NCI/ADR-RES; listed as head printed RES (second line of NCI/ADR-RES)): −4.30 | GI50 (OVCAR-4): 6.67 µM | GI50 (OVCAR-3; Homo sapiens, OVCAR-3, 48 h): 6.07 µM | Log10GI50 (OVCAR-3; OVCAR-3, present compounds): −5.22 | GI50 (NCI-H460): 7.46 µM | Log10GI50 (DU-145; DU-145, present compounds): −4.51 | GI50 (DU-145; Homo sapiens, DU-145, 48 h): 31.1 µM | GI50 (K-562; Homo sapiens, K562, K-562, 48 h): 3.57 µM | Log10GI50 (K-562; K-562, present compounds): −5.45 | GI50 (KM12): 5.54 µM | GI50 (LOX IMVI; Homo sapiens, 48 h): 6.93 µM | Log10GI50 (LOX IMVI; present compounds): −5.16 | GI50 (U251; Homo sapiens, U-251, U251, 48 h): 5.44 µM | Log10GI50 (U251; U251, present compounds): −5.26 | GI50 (SR): 7.14 µM | GI50 (SK-MEL-5): 2.85 µM | GI50 (SF-539; Homo sapiens, SF-539, 48 h): 22 µM | Log10GI50 (SF-539; SF-539, present compounds): −4.66 | GI50 (NCI-H522; Homo sapiens, NCI-H522, 48 h): 11.8 µM | Log10GI50 (NCI-H522; NCI-H522, present compounds): −4.93 | GI50 (TK-10): 26.4 µM | GI50 (SF-295; Homo sapiens, SF-295, 48 h): 3.64 µM | Log10GI50 (SF-295; SF-295, present compounds): −5.44 | LC50 ([1]; Homo sapiens, Leukemia panel, 50% net cell death, read-out: mean graph midpoint value (MG_MID) of Log10 LC50 (converted)): > 100 µM | GI50 ([1]; Homo sapiens, Leukemia panel, read-out: mean graph midpoint value (MG_MID) of Log10 GI50 (converted)): 3.72 µM | GI50 ([1]; Homo sapiens, six leukemia cancer cell lines, exposure at least 48 h, read-out: GI50, range over the panel): 2.43 to 7.14 µM | mean graph midpoint value (MG_MID) of log10 TGI ([1]; Leukemia panel, total inhibition of net cell growth): >−4.0 | LC50 ([2]; Homo sapiens, Ovarian panel, 50% net cell death, read-out: mean graph midpoint value (MG_MID) of Log10 LC50 (converted)): > 100 µM | GI50 ([2]; Homo sapiens, Ovarian panel, read-out: mean graph midpoint value (MG_MID) of Log10 GI50 (converted)): 16.2 µM | GI50 ([2]; Homo sapiens, seven ovarian cancer cell lines, exposure at least 48 h, read-out: GI50, range over the panel): 6.07 to 49.9 µM | mean graph midpoint value (MG_MID) of log10 TGI ([2]; Ovarian panel, total inhibition of net cell growth): −4.08 | mean graph midpoint value (MG_MID) of log10 TGI (Colon cancer cell lines; Colon panel, total inhibition of net cell growth): >−4.0 | LC50 (Colon cancer cell lines; Homo sapiens, Colon panel, 50% net cell death, read-out: mean graph midpoint value (MG_MID) of Log10 LC50 (converted)): > 100 µM | GI50 (Colon cancer cell lines; Homo sapiens, Colon panel, read-out: mean graph midpoint value (MG_MID) of Log10 GI50 (converted)): 9.12 µM | GI50 (Colon cancer cell lines; Homo sapiens, seven colon cancer cell lines, exposure at least 48 h, read-out: GI50, range over the panel): 3.76 to 13.7 µM | LC50 ([3]; Homo sapiens, Prostate panel, 50% net cell death, read-out: mean graph midpoint value (MG_MID) of Log10 LC50 (converted)): > 100 µM | GI50 ([3]; Homo sapiens, Prostate panel, read-out: mean graph midpoint value (MG_MID) of Log10 GI50 (converted)): 10 µM | GI50 ([3]; Homo sapiens, two prostate cancer cell lines (PC-3, DU-145), exposure at least 48 h, read-out: GI50, range over the panel): 3.17 to 31.1 µM | mean graph midpoint value (MG_MID) of log10 TGI ([3]; Prostate panel, total inhibition of net cell growth): >−4.0 | LC50 ([4]; Homo sapiens, Non-small cell lung panel, 50% net cell death, read-out: mean graph midpoint value (MG_MID) of Log10 LC50 (converted)): > 100 µM | GI50 ([4]; Homo sapiens, Non-small cell lung panel, read-out: mean graph midpoint value (MG_MID) of Log10 GI50 (converted)): 15.1 µM | GI50 ([4]; Homo sapiens, nine Non-small cell lung cancer cell lines, exposure at least 48 h, read-out: GI50, range over the panel): 1.87 to 86.5 µM | mean graph midpoint value (MG_MID) of log10 TGI ([4]; Non-small cell lung panel, total inhibition of net cell growth): >−4.0 | CC50 (Renal cancer cell lines; Homo sapiens, Renal panel, 50% net cell death, read-out: mean graph midpoint value (MG_MID) of Log10 LC50 (converted)): > 100 µM | GI50 (Renal cancer cell lines; Homo sapiens, Renal panel, read-out: mean graph midpoint value (MG_MID) of Log10 GI50 (converted)): 14.8 µM | GI50 (Renal cancer cell lines; Homo sapiens, eight renal cancer cell lines, exposure at least 48 h, read-out: GI50, range over the panel): 1.94 to 31.9 µM | mean graph midpoint value (MG_MID) of log10 TGI (Renal cancer cell lines; Renal panel, total inhibition of net cell growth): −4.03 | mean graph midpoint value (MG_MID) of log10 TGI (Breast cancer cell lines; Breast panel, total inhibition of net cell growth): >−4.0 | CC50 (Breast cancer cell lines; Homo sapiens, Breast panel, 50% net cell death, read-out: mean graph midpoint value (MG_MID) of Log10 LC50 (converted)): > 100 µM | GI50 (Breast cancer cell lines; Homo sapiens, Breast panel, read-out: mean graph midpoint value (MG_MID) of Log10 GI50 (converted)): 9.12 µM | GI50 (Breast cancer cell lines; Homo sapiens, six breast cancer cell lines, exposure at least 48 h, read-out: GI50, range over the panel): 4.02 to 20.9 µM | LC50 ([5]; Homo sapiens, Melanoma panel, 50% net cell death, read-out: mean graph midpoint value (MG_MID) of Log10 LC50 (converted)): > 100 µM | GI50 ([5]; Homo sapiens, Melanoma panel, read-out: mean graph midpoint value (MG_MID) of Log10 GI50 (converted)): 9.33 µM | GI50 ([5]; Homo sapiens, nine melanoma cancer cell lines, exposure at least 48 h, read-out: GI50, range over the panel): 2.85 to 31.6 µM | mean graph midpoint value (MG_MID) of log10 TGI ([5]; Melanoma panel, total inhibition of net cell growth): −4.02 | mean graph midpoint value (MG_MID) of log10 TGI (CNS cancer cell lines; CNS panel, total inhibition of net cell growth): −4.11 | CC50 (CNS cancer cell lines; Homo sapiens, CNS panel, 50% net cell death, read-out: mean graph midpoint value (MG_MID) of Log10 LC50 (converted)): > 100 µM | GI50 (CNS cancer cell lines; Homo sapiens, CNS panel, read-out: mean graph midpoint value (MG_MID) of Log10 GI50 (converted)): 12 µM | GI50 (CNS cancer cell lines; Homo sapiens, six CNS cancer cell lines, exposure at least 48 h, read-out: GI50, range over the panel): 3.64 to 22.1 µM | Log10GI50 (786-0; 786-0, present compounds): −4.99 log10 M | GI50 (786-0; Homo sapiens, 786-0, 48 h): 10.3 µM

From US9187467B2, “2-phenyl benzothiazole linked imidazole compounds as potential anticancer agents and process for the preparation thereof” (Council of Scientific and Industrial Research, priority 2012, dated 2015)
